Source: ChEMBL document CHEMBL5543113, “Amphiphilic α-Peptoid-deoxynojirimycin Conjugate-based Multivalent Glycosidase Inhibitor for Hypoglycemic Effect and Fluorescence Imaging” (J Med Chem, 2024)
Active and inactive are the calls of the source. The calls are words filed in the database; no cut-off is given here.

What was measured:
[1] = Toxicity in C57BL/6J mouse assessed as effect on spleen morphology at 1.6 mg/kg, po co-administered with maltose for 7 days by Hematoxylin and eosin staining based analysis; type: organism-based; conditions: in vivo, 168 h, time 7 day
Mus musculus [2] = assay: Hypoglycemic activity in C57BL/6J mouse assessed as reduction in PBG level measured per DNJ unit at 0.4 mg/kg, po co-administered with maltose and measured at 15 to 30 mins by glucometer relative to control; type: functional; design: scale not given: the % may be the effect or the level left; conditions: time 15-30 min
[3] = Self assembly property of compound in citric acid-phosphate buffer at pH 2 to 7 at 1 x 10^-4 M assessed as diameter by dynamic light scattering spectrometric analysis; type: physicochemical; conditions: pH 2, 100 µM, dose 1 10^-4M
[4] = Stability of compound in simulated gastric fluid assessed as fluorescence intensity at 2 x 10^-4 M administered as Nile red complex by fluorescence spectra analysis (reference value: 3548); type: ADME; conditions: simulated gi fluid, 200 µM; dose 2 10^-4M
Mus musculus [5] = assay: Binding affinity to mouse alpha-glucosidase assessed as fluorescence intensity at 2 x 10^-4 M administered as Nile red complex by fluorescence spectra analysis (reference value: 3586); conditions: dose 2.0 10^-4M
[6] = Inhibition of rice Alpha-glucosidase incubated for 10 mins by Lineweaver-Burk plot analysis; design: species or system Oryza sativa
[7] = Self assembly property of the compound assessed as diameter at 1 x 10^-5 mol/L by dynamic light scattering spectrometric analysis; type: physicochemical; conditions: 10 µM; dose 1 10^-5mol/L
[8] = Binding affinity to mouse alpha-glucosidase assessed as binding constant administered as Nile red complex by fluorescence spectra analysis
Mus musculus [9] = assay: Hypoglycemic activity in C57BL/6J mouse assessed as blood glucose level at 1.6 mg/kg, po co-administered with maltose and measured after 30 mins by glucometer (380.8 +/- 20.6 mg/dL); type: functional; conditions: 0.5 h
Mus musculus [10] = assay: Relative hypoglycemic rate in KKAy diabetic mouse model assessed as reduction in PBG level by measuring fold change at 1.6 mg/kg, po co-administered with maltose and measured after 30 mins by glucometer relative to miglitol; type: functional; conditions: 0.5 h
[11] = Self assembly property of the compound assessed as diameter at 2.5 x 10^-5 mol/L by dynamic light scattering spectrometric analysis; type: physicochemical; conditions: 25 µM; dose 2.5 10^-5mol/L
Mus musculus [12] = assay: Hypoglycemic activity in KKAy diabetic mouse model assessed as decrease in PBG level at 1.6 mg/kg, po co-administered with maltose and measured after 15 mins by glucometer relative to control; type: functional; design: scale not given: the % may be the effect or the level left; conditions: 0.25 h
[13] = Inhibition of Aspergillus niger Alpha-glucosidase incubated for 10 mins by Lineweaver-Burk plot analysis
Mus musculus [14] = assay: Hypoglycemic activity in C57BL/6J mouse assessed as blood glucose level at 0.8 mg/kg, po co-administered with maltose and measured after 15 mins by glucometer (380.8 +/- 20.6 mg/dl); type: functional; conditions: 0.25 h
[15] = Toxicity in C57BL/6J mouse assessed as effect on heart morphology at 1.6 mg/kg, po co-administered with maltose for 7 days by Hematoxylin and eosin staining based analysis; type: organism-based; conditions: in vivo, 168 h, time 7 day
[16] = Self assembly property of the compound assessed as diameter at 1 x 10^-4 mol/L by dynamic light scattering spectrometric analysis; type: physicochemical; conditions: 100 µM; dose 1 10^-4mol/L
Mus musculus [17] = assay: Hypoglycemic activity in KKAy diabetic mouse model assessed as blood glucose level at 1.6 mg/kg, po co-administered with maltose and measured after 60 mins by glucometer (reference value: 582.6 +/- 22.9 mg/dl); type: functional; conditions: 1 h
Mus musculus [18] = assay: Binding affinity to mouse alpha-glucosidase assessed as decrease in fluorescence intensity at 200 uM administered as Nile red complex in presence of miglitol by fluorescence spectra analysis
[19] = Toxicity in C57BL/6J mouse assessed as effect on lung morphology at 1.6 mg/kg, po co-administered with maltose for 7 days by Hematoxylin and eosin staining based analysis; type: organism-based; conditions: in vivo, 168 h, time 7 day
Mus musculus [20] = assay: Relative hypoglycemic rate in C57BL/6J mouse assessed as reduction in PBG level by measuring fold change at 1.6 mg/kg, po co-administered with maltose and measured after 30 mins by glucometer relative to miglitol; type: functional; conditions: 0.5 h
Mus musculus [21] = assay: Hypoglycemic activity in C57BL/6J mouse assessed as decrease in PBG level at 0.4 mg/kg, po co-administered with maltose and measured after 30 mins by glucometer relative to control; type: functional; design: scale not given: the % may be the effect or the level left; conditions: 0.5 h
[22] = Self assembly property of the compound in water assessed as diameter at 1 x 10^-4 M by transmission electron microscopic analysis; type: physicochemical; conditions: buffer, 100 µM; dose 1 10^-4M
[23] = Inhibition of C57BL/6J mouse Alpha-glucosidase incubated for 10 mins by Lineweaver-Burk plot analysis
Aspergillus niger = assay: Potency index, ratio of 1-deoxynojirimycin Ki to test compound Ki for inhibition of Aspergillus niger Alpha-glucosidase incubated for 10 mins by Lineweaver-Burk plot analysis
Mus musculus [24] = assay: Hypoglycemic activity in KKAy diabetic mouse model assessed as blood glucose level at 1.6 mg/kg, po co-administered with maltose and measured after 15 mins by glucometer (reference value: 582.6 +/- 22.9 mg/dl); type: functional; conditions: 0.25 h
[25] = Binding affinity to mouse alpha-glucosidase assessed as miglitol binding constant at 200 uM administered as Nile red complex in presence of miglitol by fluorescence spectra analysis
[26] = Cytotoxicity against human GES1 cells assessed as viable cells at 125 uM incubated for 44 hrs by MTT assay relative to control; type: toxicity, cell-based; conditions: read-out: Activity
Mus musculus [27] = assay: Hypoglycemic activity in KKAy diabetic mouse model assessed as blood glucose level at 1.6 mg/kg, po co-administered with maltose and measured after 120 mins by glucometer (reference value: 582.6 +/- 22.9 mg/dl); type: functional; conditions: 2 h
Mus musculus [28] = assay: Binding affinity to mouse alpha-glucosidase assessed as DNJ fluorescence intensity at 2 x 10^-4 M administered as Nile red complex in presence of DNJ by fluorescence spectra analysis (reference value: 1627); conditions: dose 2.0 10^-4M
Mus musculus [29] = assay: Hypoglycemic activity in C57BL/6J mouse assessed as decrease in PBG level at 1.6 mg/kg, po co-administered with maltose and measured after 15 mins by glucometer relative to control; type: functional; design: scale not given: the % may be the effect or the level left; conditions: 0.25 h
[30] = Drug uptake in C57/6J mouse heart assessed as increase in fluorescence at 5 x 10^-5M, po administered as Nile red complex and measured after 4 hrs by fluorescence imaging analysis; type: ADME, organism-based; conditions: in vivo, dose 5 10^-5M
Mus musculus [31] = assay: Hypoglycemic activity in C57BL/6J mouse assessed as decrease in PBG level at 1.6 mg/kg, po co-administered with maltose and measured after 30 mins by glucometer relative to control; type: functional; design: scale not given: the % may be the effect or the level left; conditions: 0.5 h
[32] = Self assembly property of compound assessed as Nilered-compound complex formation by measuring critical micellar concentration at 638 nm by Nile red dye based fluorescence analysis; type: physicochemical
[33] = Toxicity in C57BL/6J mouse assessed as effect on kidney morphology at 1.6 mg/kg, po co-administered with maltose for 7 days by Hematoxylin and eosin staining based analysis; type: organism-based; conditions: in vivo, 168 h, time 7 day
Mus musculus [34] = assay: Hypoglycemic activity in KKAy diabetic mouse model assessed as decrease in PBG level at 1.6 mg/kg, po co-administered with maltose and measured after 60 mins by glucometer relative to control; type: functional; design: scale not given: the % may be the effect or the level left; conditions: 1 h

CCCCCCCCCCCCCCCCCCNC(=O)CN(Cc1cn(CCCCCCN2C[C@H](O)[C@@H](O)[C@H](O)[C@H]2CO)nn1)C(=O)CN(Cc1cn(CCCCCCN2C[C@H](O)[C@@H](O)[C@H](O)[C@H]2CO)nn1)C(=O)CN(Cc1cn(CCCCCCN2C[C@H](O)[C@@H](O)[C@H](O)[C@H]2CO)nn1)C(=O)CN(Cc1cn(CCCCCCN2C[C@H](O)[C@@H](O)[C@H](O)[C@H]2CO)nn1)C(C)=O
Activity [1]: Non-Toxic
Activity (Mus musculus [2]): 22.2%
Activity [3]: 138 nm
Flu intensity [4]: 862
Flu intensity (Mus musculus [5]): 1750
Ki [6]: 27 nM
Activity [7]: 179 nm
Ka [8]: 5680 M⁻¹
Activity (Mus musculus [9]): 230.4 mg/dL
fold change (FC) (Mus musculus [10]): 3
Activity [11]: 195 nm
Activity (Mus musculus [12]): 6.6%
Ki [13]: 170 nM
Activity (Mus musculus [14]): 326.5 mg/dL
Activity [15]: Non-Toxic
Activity [16]: 276 nm
Activity (Mus musculus [17]): 432.6 mg/dL
Activity (Mus musculus [18]): inactive
Activity [19]: Non-Toxic
fold change (FC) (Mus musculus [20]): 1.8
Activity (Mus musculus [21]): 18.6%
Activity [22]: 96 nm
Ki [23]: 2700 nM
Ratio Ki (Aspergillus niger): 21.2
Activity (Mus musculus [24]): 327.6 mg/dL
Ka [25]: 205 M⁻¹
viability at 44 h, 125 µM [26]: > 80%
Activity (Mus musculus [27]): 351 mg/dL
Flu intensity (Mus musculus [28]): 2300
Activity (Mus musculus [29]): 18.8%
Drug uptake [30]: Not Active
Activity (Mus musculus [31]): 39.5%
CAC [32]: 8.31 10^-5M
Activity [33]: Non-Toxic
Activity (Mus musculus [34]): 22.1%
